Measured values reported in PMC5845353, “The selective cathepsin K inhibitor MIV-711 attenuates joint pathology in experimental animal models of osteoarthritis” (Journal of Translational Medicine, 2018).

What was measured:
CTX-II = test: Urinary CTX-II in dogs subjected to partial medial meniscectomy; assay type: in vivo; conditions: dog, 30 µmol/kg
Method: Dogs subjected to partial medial meniscectomy received either 30 µmol/kg MIV-711 (synthesized by Medivir and given as a suspension in 1% Methocel A4C; n = 15) or vehicle (1% Methocel A4C; n = 15) by orogastric gavage once daily in the morning. […] Dosing started the day before surgery and lasted through Day 28, the day before necropsy. Each dog was fasted for at least 12 h before dosing and food were returned approximately 4 h following test article administration.
Urine samples were collected from the animals 1 to 3 days before surgery and treatment (baseline sample), 4 to 7 days after the start of treatment (Day 7 sample) and 26 to 28 days after treatment (Day 28 sample). Dogs were housed in metabolic cages overnight during urine collection. […]
In rabbits, conventional CTX-I assays to assess bone resorption cannot be used due to species differences. Instead, urinary helical peptide (HP-1) concentrations were measured in rabbits using the MicroVue Helical Peptide kit (Ref: 8022) from Quidel (San Diego, CA) according to the instructions supplied by the manufacturer. In dogs, urinary levels of C-terminal telopeptide of collagen type I (CTX-I) were measured using a commercially available kit (Urine BETA CrossLaps ELISA, Ref: AC-05F1, IDS Nordic Bioscience Diagnostics A/S). […] In dogs, CTX-II levels were also measured in synovial fluid. […]

Knee OA patients = conditions: once daily treatment for 6 months; cited from earlier work

C#C[C@@H]1CN(C(=O)[C@H](CC(C)C)NC(=O)c2ccc(-c3nc(N4CCN(C)CC4)sc3F)cc2)[C@@H]2C(=O)CO[C@H]12 [MIV-711]
urinary CTX-II levels reduced by (CTX-II; Day 7, vs. baseline): 80% | urinary CTX-II levels reduced by (CTX-II; Day 28, vs. baseline): 80% | benefit on joint structure by MRI compared to placebo (Knee OA patients): significantly lower increases in bone area and cartilage thinning
